Assay results published in US20220144841A1, “TRISUBSTITUTED PYRAZOLO [1,5-A] PYRIMIDINE COMPOUNDS AS CDK7 INHIBITORS” (THE TRANSLATIONAL GENOMICS RESEARCH INSTITUTE, priority 2019, published 2022).
Counter-ions that a name gives are not always drawn.

Target: T1, CDK7/CycH/MAT1 (Homo sapiens, UniProt P50613)
T1 construct: purchased ProQinase 0366-0360-4
Test: Kinase Glo Assay
Format: biochemical
Conditions: Kinase-Glo Assay was used (compounds marked *), ATP 1 μM, 60 minutes at room temperature
Method: Assay Buffer: 50 mM HEPES, 3 mM MgCl2, 3 mM MnCl2, 1 mM DTT, 3 μM Na3VO4, pH 7.5
Kinase-Glo™ Assay (Promega #: V6711): ATP: 10 mM, Kinase-Glo™ Reagent 384-well white assay plates
A ten point serial dilution of compound was prepared at 5× concentration in assay buffer with the final assay concentrations starting at 30 μM, 10 μM, 3 μM, 1 μM . . . 0 μM. Enzyme and ATP were used at 40 ng and 1 μM, respectively. The assay plate was set up by mixing the components in a total reaction volume of 10 μL per well. The plate was centrifuged gently for 10 seconds and incubated at room temperature (RT) for 60 minutes in the dark. The Kinase-Glo Reagent was added and incubated as recommended. The reaction was quantified by measuring luminescence on the Perkin Elmer Envision plate reader. Data was analyzed using Graphpad Prism 7 software.

T1 sequence (P50613 whole entry): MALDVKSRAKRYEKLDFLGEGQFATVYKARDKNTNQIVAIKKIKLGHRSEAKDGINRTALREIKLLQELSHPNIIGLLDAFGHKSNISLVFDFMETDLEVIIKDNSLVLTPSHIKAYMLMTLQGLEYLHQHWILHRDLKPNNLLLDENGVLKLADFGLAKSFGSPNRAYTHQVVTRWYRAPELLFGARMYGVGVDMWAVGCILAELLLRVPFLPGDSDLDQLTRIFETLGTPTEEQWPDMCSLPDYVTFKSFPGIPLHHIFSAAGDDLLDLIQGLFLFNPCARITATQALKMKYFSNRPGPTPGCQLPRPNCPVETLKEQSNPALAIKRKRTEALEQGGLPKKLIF
T1 sequence (P51946 whole entry partner): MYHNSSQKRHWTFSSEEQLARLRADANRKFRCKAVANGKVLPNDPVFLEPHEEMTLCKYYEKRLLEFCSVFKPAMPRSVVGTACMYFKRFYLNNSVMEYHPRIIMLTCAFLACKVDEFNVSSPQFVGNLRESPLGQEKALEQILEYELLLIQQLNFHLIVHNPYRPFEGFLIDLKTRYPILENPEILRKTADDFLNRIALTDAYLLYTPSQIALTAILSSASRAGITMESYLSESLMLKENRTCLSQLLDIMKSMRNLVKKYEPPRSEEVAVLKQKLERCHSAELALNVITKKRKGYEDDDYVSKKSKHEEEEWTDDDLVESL
T1 sequence (P51948 whole entry partner): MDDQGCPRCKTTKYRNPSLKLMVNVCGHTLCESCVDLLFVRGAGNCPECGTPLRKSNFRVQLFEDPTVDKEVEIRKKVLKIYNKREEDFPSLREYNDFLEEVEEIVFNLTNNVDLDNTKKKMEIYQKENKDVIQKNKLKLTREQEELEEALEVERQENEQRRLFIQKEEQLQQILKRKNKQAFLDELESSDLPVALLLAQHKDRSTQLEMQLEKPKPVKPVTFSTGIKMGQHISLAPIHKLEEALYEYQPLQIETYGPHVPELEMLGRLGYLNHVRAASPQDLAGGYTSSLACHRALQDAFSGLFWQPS

SMILES | IC50 [nM]
Fc1cccc(Nc2cc(N[C@H]3CCCNC3)nc3c(C4CCC4)cnn23)c1 [Compound I-23, (S)-3-cyclobutyl-N^7-(3-fluorophenyl)-N^5-(piperidin-3-yl)pyrazolo[1,5-a]pyrimidine-5,7-diamine hydrochloride] | 100 to 1000
Clc1cccc(Nc2cc(N[C@H]3CCCNC3)nc3c(Cl)cnn23)c1 [Compound I-1, (S)-3-chloro-N^7-(3 - chlorophenyl)-N^5-(piperidin-3-yl)pyrazolo[1,5-a]pyrimidine-5,7-diamine] | 100 to 1000
O[C@H]1CCNC[C@@H]1Nc1cc(Nc2cccc(F)c2)n2ncc(Cl)c2n1 [Compound I-3, (3S,4S)-3-((3-chloro-7-((3-fluorophenyl)amino)pyrazolo [1,5-a]pyrimidin-5-yl)amino)piperidin-4-ol] | > 1000
Fc1cccc(Nc2cc(N[C@H]3CCCCNC3)nc3c(C4CC4)cnn23)c1 [Compound I-5, (S)-N^5-(azepan-3-yl)-3-cyclopropyl-N^7-(3-fluorophenyl)pyrazolo[1,5-a]pyrimidine-5,7-diamine] | > 1000
Fc1cccc(Nc2cc(N[C@H]3CCCNC3)nc3c(C4CC4)cnn23)c1 [Compound I-19, hydrochloride] | 100 to 1000
Fc1cccc(Nc2cc(N[C@H]3CCCNC3)nc3c(Cl)cnn23)c1 [Compound I-2, (S)-3-chloro-N^7-(3-fluorophenyl)-N^5-(piperidin-3-yl)pyrazolo[1,5-a]pyrimidine-5,7-diamine] | < 100

Next, values leading:

IC50 [nM] | SMILES
> 1000 | O[C@H]1CCNC[C@@H]1Nc1cc(Nc2cccc(F)c2)n2ncc(C3CCC3)c2n1 [Compound I-24, (3S,4S)-3-((3-cyclobutyl-7-((3-fluorophenyl)amino)pyrazolo [1,5-a]pyrimidin-5-yl)amino)piperidin-4-ol hydrochloride]
100 to 1000 | N#Cc1cnn2c(NCc3cc(Cl)cc(Cl)c3)cc(N[C@H]3CCCNC3)nc12 [Compound I-26, (S)-7-((3,5-dichlorobenzyl)amino)-5-((piperidin-3-yl)amino)pyrazolo[1,5-a]pyrimidine-3-carbonitrile]
100 to 1000 | N#Cc1cnn2c(NCc3cccc(Cl)c3)cc(N[C@H]3CCCNC3)nc12 [Compound I-28, (S)-7-((3-chlorobenzyl)amino)-5-((piperidin-3-yl)amino)pyrazolo[1,5-a]pyrimidine-3-carbonitrile]
